# Test results taken from article PMC8822125, “RW-BP100-4D, a Promising Antimicrobial Candidate With Broad-Spectrum Bactericidal Activity” (Frontiers in Microbiology, 2022).
# Where a SMILES comes first, the peptide text is derived from it.
# Legend:
# sheep red blood cells = sheep red blood cells in PBS, 37°C, 1 h, OD576, relative to melittin, mean ± SD, three repeats; for Hemolytic rate, 50 μg/mL: 50 μg/mL peptide; for Hemolytic rate, 100 μg/mL: 100 μg/mL peptide; for Hemolytic rate, 150 μg/mL: 150 μg/mL peptide; for Hemolytic rate, 300 μg/mL: 300 μg/mL peptide;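 for all read-outs here: hemolysis expressed in % from supernatant absorbance, with PBS-treated cells as 0% baseline and melittin as 100%, peptide mixed 1:1 with an 8% v/v erythrocyte suspension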
# RAW264.7 cells = conditions: peptide 150 μg/mL, 24 h, WST-1, mean ± SD, three repeats
# MAC-T cells = conditions: peptide 150 μg/mL, 24 h, WST-1, mean ± SD, three repeats
# [1] = test system: Escherichia coli ATCC25922; conditions: Table 1; broth microdilution CLSI M100-S25, MH broth, 37°C, 18 h, three independent repeats
# [2] = test system: Staphylococcus aureus ATCC29213; assay: MIC/MBC, broth microdilution; type: cell-based; conditions: Table 1; broth microdilution CLSI M100-S25, MH broth, 37°C, 18 h, three independent repeats
# various microorganisms = assay: MIC/MBC, summary statements over several strains; type: cell-based; conditions: summary of Table 1
Structure (SMILES),"Hemolytic rate, 50 μg/mL (sheep red blood cells) [%]","Hemolytic rate, 100 μg/mL (sheep red blood cells) [%]","Hemolytic rate, 150 μg/mL (sheep red blood cells) [%]","Hemolytic rate, 300 μg/mL (sheep red blood cells) [%]","Cell survival rate, RAW264.7 (RAW264.7 cells) [%]","Cell survival rate, MAC-T (MAC-T cells) [%]",MIC Escherichia coli ATCC25922 [1] [µg/mL],MIC Staphylococcus aureus ATCC29213 [2] [µg/mL],MIC against S. aureus ATCC29213 and E. coli ATCC25922 (both strains together) (various microorganisms) [µg/mL]
CC[C@H](C)[C@H](NC(=O)[C@H](CCCNC(=N)N)NC(=O)[C@H](CCCNC(=N)N)NC(=O)[C@H](Cc1ccccc1)NC(=O)[C@H](CC(C)C)NC(=O)[C@H](CCCNC(=N)N)NC(=O)[C@H](N)CCCNC(=N)N)C(=O)N[C@@H](CC(C)C)C(=O)N[C@@H](CCCNC(=N)N)C(=O)N[C@@H](Cc1c[nH]c2ccccc12)C(=O)N[C@@H](CC(C)C)C(N)=O [RW-BP100-1D] (HELM PEPTIDE1{[dR].R.L.F.R.R.I.L.R.W.L.[am]}$$$$V2.0),4.61 ± 0.47,5.49 ± 0.23,39.81 ± 0.20,52.88 ± 3.06,9.55 ± 2.45,52.71 ± 5.68,12,25,
CC[C@H](C)[C@H](NC(=O)[C@H](CCCNC(=N)N)NC(=O)[C@H](CCCNC(=N)N)NC(=O)[C@H](Cc1ccccc1)NC(=O)[C@H](CC(C)C)NC(=O)[C@@H](CCCNC(=N)N)NC(=O)[C@@H](N)CCCNC(=N)N)C(=O)N[C@@H](CC(C)C)C(=O)N[C@@H](CCCNC(=N)N)C(=O)N[C@@H](Cc1c[nH]c2ccccc12)C(=O)N[C@@H](CC(C)C)C(N)=O [RW-BP100-2D] (HELM PEPTIDE1{R.[dR].L.F.R.R.I.L.R.W.L.[am]}$$$$V2.0),4.83 ± 1.08,5.99 ± 0.79,39.16 ± 1.75,62.12 ± 6.27,6.83 ± 5.69,63.07 ± 3.23,12,25,
CC[C@H](C)[C@H](NC(=O)[C@H](CCCNC(=N)N)NC(=O)[C@H](CCCNC(=N)N)NC(=O)[C@H](Cc1ccccc1)NC(=O)[C@@H](CC(C)C)NC(=O)[C@H](CCCNC(=N)N)NC(=O)[C@@H](N)CCCNC(=N)N)C(=O)N[C@@H](CC(C)C)C(=O)N[C@@H](CCCNC(=N)N)C(=O)N[C@@H](Cc1c[nH]c2ccccc12)C(=O)N[C@@H](CC(C)C)C(N)=O [RW-BP100-3D] (HELM PEPTIDE1{R.R.[dL].F.R.R.I.L.R.W.L.[am]}$$$$V2.0),3.49 ± 0.76,4.04 ± 0.20,38.13 ± 3.12,55.73 ± 5.27,7.69 ± 7.89,50.63 ± 2.36,50,25,
CC[C@H](C)[C@H](NC(=O)[C@H](CCCNC(=N)N)NC(=O)[C@@H](CCCNC(=N)N)NC(=O)[C@H](Cc1ccccc1)NC(=O)[C@H](CC(C)C)NC(=O)[C@H](CCCNC(=N)N)NC(=O)[C@@H](N)CCCNC(=N)N)C(=O)N[C@@H](CC(C)C)C(=O)N[C@@H](CCCNC(=N)N)C(=O)N[C@@H](Cc1c[nH]c2ccccc12)C(=O)N[C@@H](CC(C)C)C(N)=O [RW-BP100-5D] (HELM PEPTIDE1{R.R.L.F.[dR].R.I.L.R.W.L.[am]}$$$$V2.0),1.26 ± 0.54,2.49 ± 0.72,29.72 ± 0.94,51.41 ± 4.64,39.05 ± 1.65,77.84 ± 5.63,6,6,3 to 12
CC[C@H](C)[C@H](NC(=O)[C@@H](CCCNC(=N)N)NC(=O)[C@H](CCCNC(=N)N)NC(=O)[C@H](Cc1ccccc1)NC(=O)[C@H](CC(C)C)NC(=O)[C@H](CCCNC(=N)N)NC(=O)[C@@H](N)CCCNC(=N)N)C(=O)N[C@@H](CC(C)C)C(=O)N[C@@H](CCCNC(=N)N)C(=O)N[C@@H](Cc1c[nH]c2ccccc12)C(=O)N[C@@H](CC(C)C)C(N)=O [RW-BP100-6D] (HELM PEPTIDE1{R.R.L.F.R.[dR].I.L.R.W.L.[am]}$$$$V2.0),2.33 ± 1.51,3.25 ± 0.23,32.57 ± 1.20,55.81 ± 2.87,5.92 ± 2.63,58.87 ± 3.45,12,12,3 to 12
